Data on 30 molecules can be found in patent US9255101B2 (BIOPROJECT, priority 2012, dated 2016).

The target in data set [1] is T1, human H4 receptor (Homo sapiens, UniProt Q9H3N8). Put plainly: biochemical.
The target of data set [2] is T1, human H4 receptor. Put plainly: biochemical. The source holds these as a separate data set.
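Wherever IC50 is given: membranes from SH-SY5Y cells with stable human H4 receptor expression, incubated with GDP 10 µM, radioactivity retained on filters counted by liquid scintillation.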
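Wherever Ki is given: radioligand displacement of a [3H]-labelled ligand from membranes of CHO cells stably expressing human H4 receptor, bound radioactivity counted on filters by liquid scintillation.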

T1 sequence (Q9H3N8 whole entry): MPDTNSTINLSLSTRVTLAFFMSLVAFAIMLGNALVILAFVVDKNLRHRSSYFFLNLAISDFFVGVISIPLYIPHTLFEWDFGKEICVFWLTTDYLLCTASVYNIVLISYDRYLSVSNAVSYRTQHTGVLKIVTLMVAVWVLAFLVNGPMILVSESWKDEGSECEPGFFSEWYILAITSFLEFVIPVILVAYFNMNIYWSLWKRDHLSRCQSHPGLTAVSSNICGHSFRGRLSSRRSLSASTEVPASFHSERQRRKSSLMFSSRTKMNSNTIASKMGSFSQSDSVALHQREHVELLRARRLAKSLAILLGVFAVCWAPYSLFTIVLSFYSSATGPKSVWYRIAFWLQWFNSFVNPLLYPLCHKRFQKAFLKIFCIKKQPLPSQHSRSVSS

Consider `CN1CCC(OC2c3ccccc3CCn3cc(-c4ccccc4)nc32)CC1` (centres unmarked) [Example 4, 4-(1-methylpiperidin-4-yloxy)-2-phenyl-9,10-dihydro-4H-3,10a-diaza-benzo[f]azulene], for which the melting point was 113 °C. In addition, at human H4 receptor [1], the inhibition constant Ki was less than 300 nM. The half-inhibitory concentration (IC50) at human H4 receptor [2] is less than 300 nM.

The molecule `CN1CCC(OC2c3ccccc3CCn3cc(-c4ccc(Br)cc4)nc32)CC1` (centres unmarked) [Example 81, 2-(4-bromophenyl)-4-(1-methylpiperidin-4-yloxy)-9,10-dihydro-4H-3,10a-diaza-benzo[f]azulene] displayed a melting point of 142 °C. At human H4 receptor [1], the inhibitory constant (Ki) was less than 30 nM. Besides, at human H4 receptor [2], the IC50 was less than 30 nM.

In turn, `CN1CCC(OC2c3ccccc3CCn3c2nc(-c2ccc(Br)cc2)c3Cl)CC1` (centres unmarked) [Example 127, 2-(4-bromophenyl)-1-chloro-4-(1-methylpiperidin-4-yloxy)-9,10-dihydro-4H-3,10a-diaza-benzo[f]azulene] showed a melting point of 169 °C. Also, the Ki at human H4 receptor [1] is less than 30 nM. Moreover, on human H4 receptor [2], the concentration for half-maximal inhibition (IC50) was less than 30 nM.

Consider `Cc1c(-c2ccccc2F)nc2n1CCc1ccccc1C2OC1CCN(C)CC1` (centres unmarked) [Example 142, 2-(2-fluorophenyl)-1-methyl-4-(1-methylpiperidin-4-yloxy)-9,10-dihydro-4H-3,10a-diaza-benzo[f]azulene], for which the melting point was found to be 68 °C. The Ki on human H4 receptor [1] is less than 300 nM. This molecule gave an IC50 at human H4 receptor [2] of less than 30 nM.

`Cc1c(-c2cccc(F)c2)nc2n1CCc1ccccc1C2OC1CCN(C)CC1` (centres unmarked) [Example 143, 2-(3-fluorophenyl)-1-methyl-4-(1-methylpiperidin-4-yloxy)-9,10-dihydro-4H-3,10a-diaza-benzo[f]azulene] came in with a melting point of 132 °C. Besides, the inhibitory constant (Ki) on human H4 receptor [1] is less than 30 nM. Moreover, the IC50 against human H4 receptor [2] is less than 30 nM.

Take `CCCNC(=O)c1nc2n(c1C)CCc1ccccc1C2OC1CCN(C)CC1` (centres unmarked) [Example 205, 1-methyl-4-(1-methylpiperidin-4-yloxy)-9,10-dihydro-4H-3,10a-diaza-benzo[f]azulene-2-carboxylic acid propylamide]: the melting point was found to be 60 °C. Further, the Ki on human H4 receptor [1] was less than 1000 nM.

`CN1CCC(OC2c3ccccc3CCn3c2nc(I)c3C#N)CC1` (centres unmarked) [Example 221, 2-iodo-4-(1-methylpiperidin-4-yloxy)-9,10-dihydro-4H-3,10a-diaza-benzo[f]azulene-1-carbonitrile]: the melting point was 195 °C. This molecule also registered an inhibitory constant (Ki) at human H4 receptor [1] of less than 1000 nM.

Regarding `CN1CCC(OC2c3ccccc3CCn3c2nc(-c2ccc(C(=O)OC(C)(C)C)cc2)c3C#N)CC1` (centres unmarked) [Example 224, 4-[1-cyano-4-(1-methylpiperidin-4-yloxy)-9,10-dihydro-4H-3,10a-diaza-benzo[f]azulen-2-yl]-benzoic acid tert-butyl ester], the melting point was 95 °C. This molecule registered an inhibition constant (Ki) on human H4 receptor [1] of less than 30 nM.

The molecule `CN1CCC(OC2c3ccccc3CC(C)(C)n3cc(-c4ccccc4)nc32)CC1` (centres unmarked) [Example 230, 10,10-dimethyl-4-(1-methylpiperidin-4-yloxy)-2-phenyl-9,10-dihydro-4H-3,10a-diaza-benzo[f]azulene] gave a melting point of 85 °C. The molecule also had a Ki at human H4 receptor [1] of less than 1000 nM.

As to `CN1CCC(OC2c3cccc(Br)c3CCn3cc(-c4ccccc4)nc32)CC1` (centres unmarked) [Example 231, 8-Bromo-4-(1-methyl-piperidin-4-yloxy)-2-phenyl-9,10-dihydro-4H-3,10a-diaza-benzo[f]azulene], the melting point is 83 °C. This molecule registered an inhibition constant (Ki) on human H4 receptor [1] of less than 300 nM.

Consider `CN1CCC(OC2c3cccc(Cc4ccccc4)c3CCn3cc(-c4ccccc4)nc32)CC1` (centres unmarked) [Example 233, 8-benzyl-4-(1-methylpiperidin-4-yloxy)-2-phenyl-9,10-dihydro-4H-3,10a-diaza-benzo[f]azulene], for which the melting point was found to be 66 °C. On human H4 receptor [1], this molecule returned an inhibitory constant (Ki) of less than 1000 nM.

Molecule `CSc1cccc2c1CCn1cc(-c3ccccc3)nc1C2OC1CCN(C)CC1` (centres unmarked) [Example 234, 4-(1-methylpiperidin-4-yloxy)-8-methylsulfanyl-2-phenyl-9,10-dihydro-4H-3,10a-diaza-benzo[f]azulene] displayed a melting point of 134 °C. The Ki on human H4 receptor [1] is less than 1000 nM.

`Cc1cccc2c1CCn1cc(-c3ccccc3)nc1C2OC1CCN(C)CC1` (centres unmarked) [Example 236, 8-methyl-4-(1-methylpiperidin-4-yloxy)-2-phenyl-9,10-dihydro-4H-3,10a-diaza-benzo[f]azulene] returned a melting point of 71 °C. Moreover, the Ki on human H4 receptor [1] is less than 300 nM.

The molecule `C=CCCc1cccc2c1CCn1cc(-c3ccccc3)nc1C2OC1CCN(C)CC1.O=C(O)C(=O)O` (centres unmarked) [Example 237, 8-but-3-enyl-4-(1-methylpiperidin-4-yloxy)-2-phenyl-9,10-dihydro-4H-3,10a-diaza-benzo[f]azulene, oxalate] displayed a melting point of 107 °C. The molecule also gave a Ki at human H4 receptor [1] of less than 1000 nM.

`CCCc1c(-c2ccccc2)nc2n1CCc1ccccc1C2OC1CCN(C)CC1` (centres unmarked) [Example 238, 4-(1-methylpiperidin-4-yloxy)-2-phenyl-1-propyl-9,10-dihydro-4H-3,10a-diaza-benzo[f]azulene] had a melting point of 144 °C. Further, the inhibitory constant (Ki) on human H4 receptor [1] was less than 300 nM.

On to `Cc1ccccc1-c1cccc2c1CCn1cc(-c3ccccc3)nc1C2OC1CCN(C)CC1` (centres unmarked) [Example 239, 4-(1-methylpiperidin-4-yloxy)-2-phenyl-8-o-tolyl-9,10-dihydro-4H-3,10a-diaza-benzo[f]azulene], for which the melting point worked out at 94 °C. Moreover, on human H4 receptor [1], the Ki is less than 1000 nM.

The molecule `CN1CCC(OC2c3cccc(-c4ccc(F)cc4)c3CCn3cc(-c4ccccc4)nc32)CC1` (centres unmarked) [Example 240, 8-(4-fluorophenyl)-4-(1-methylpiperidin-4-yloxy)-2-phenyl-9,10-dihydro-4H-3,10a-diaza-benzo[f]azulene] registered a melting point of 95 °C. The inhibitory constant (Ki) at human H4 receptor [1] was less than 300 nM.

Take `COc1cccc(-c2cccc3c2CCn2cc(-c4ccccc4)nc2C3OC2CCN(C)CC2)c1` (centres unmarked) [Example 241, 8-(3-methoxyphenyl)-4-(1-methylpiperidin-4-yloxy)-2-phenyl-9,10-dihydro-4H-3,10a-diaza-benzo[f]azulene]: the melting point worked out at 93 °C. At human H4 receptor [1], this molecule displayed a Ki of less than 300 nM.

As for `CN1CCC(OC2c3cccc(-c4cccc(N)c4)c3CCn3cc(-c4ccccc4)nc32)CC1` (centres unmarked) [Example 242, 3-[4-(1-methylpiperidin-4-yloxy)-2-phenyl-9,10-dihydro-4H-3,10a-diaza-benzo[f]azulen-8-yl]-phenylamine], the melting point turned out to be 120 °C. On human H4 receptor [1], this molecule yielded an inhibition constant Ki of less than 1000 nM.

Regarding `CC(C)c1c(-c2ccccc2)nc2n1CCc1ccccc1C2OC1CCN(C)CC1.O=C(O)C(=O)O.O=C(O)C(=O)O` (centres unmarked) [Example 243, 1-isopropyl-4-(1-methylpiperidin-4-yloxy)-2-phenyl-9,10-dihydro-4H-3,10a-diaza-benzo[f]azulene dioxalate], the melting point amounted to 90 °C. Besides, on human H4 receptor [1], the Ki was less than 300 nM.

`CNc1cccc2c1CCn1cc(-c3ccccc3)nc1C2OC1CCN(C)CC1` (centres unmarked) [Example 244, methyl-[4-(1-methylpiperidin-4-yloxy)-2-phenyl-9,10-dihydro-4H-3,10a-diaza-benzo[f]azulen-8-yl]-amine] registered a melting point of 189 °C. For the same molecule, the Ki at human H4 receptor [1] was less than 1000 nM.

The molecule `COc1cccc2c1CCn1cc(-c3ccccc3)nc1C2OC1CCN(C)CC1` (centres unmarked) [Example 245, 8-methoxy-4-(1-methylpiperidin-4-yloxy)-2-phenyl-9,10-dihydro-4H-3,10a-diaza-benzo[f]azulene] returned a melting point of 73 °C. The Ki at human H4 receptor [1] was less than 1000 nM.

`CN1CCC(OC2c3ccccc3CCn3c2nc(-c2ccccc2)c3I)CC1` (centres unmarked) [Example 247, 1-iodo-4-(1-methylpiperidin-4-yloxy)-2-phenyl-9,10-dihydro-4H-3,10a-diaza-benzo[f]azulene]: the melting point was found to be 153 °C. This molecule also registered a Ki on human H4 receptor [1] of less than 30 nM.

`CN1CCC(OC2c3cccc(OCc4ccccc4)c3CCn3cc(-c4ccccc4)nc32)CC1` (centres unmarked) [Example 248, 8-benzyloxy-4-(1-methylpiperidin-4-yloxy)-2-phenyl-9,10-dihydro-4H-3,10a-diaza-benzo[f]azulene] came in with a melting point of 68 °C. At human H4 receptor [1], this molecule gave a Ki of less than 1000 nM.

On to `CN1CCC(OC2c3cccc(CCc4ccccc4)c3CCn3cc(-c4ccccc4)nc32)CC1` (centres unmarked) [Example 249, 4-(1-methyl-piperidin-4-yloxy)-8-phenethyl-2-phenyl-9,10-dihydro-4H-3,10a-diaza-benzo[f]azulene], for which the melting point turned out to be 67 °C. This molecule also came in with a Ki on human H4 receptor [1] of less than 1000 nM.

The molecule `CN1CCC(OC2c3ccccc3CCn3c2nc(-c2ccccc2)c3-c2ccccc2)CC1` (centres unmarked) [Example 252, 4-(1-methylpiperidin-4-yloxy)-1,2-diphenyl-9,10-dihydro-4H-3,10a-diaza-benzo[f]azulene] returned a melting point of 90 °C. The molecule also yielded a Ki on human H4 receptor [1] of less than 300 nM.

In the case of `CN1CCC(OC2c3ccccc3CCn3c2nc(I)c3C(N)=O)CC1` (centres unmarked) [Example 253, 2-iodo-4-(1-methylpiperidin-4-yloxy)-9,10-dihydro-4H-3,10a-diaza-benzo[f]azulene-1-carboxylic acid amide], the melting point was 85 °C. This molecule yielded a Ki on human H4 receptor [1] of less than 1000 nM.

`CN1CCC(OC2c3ccc(Br)cc3CCn3cc(-c4ccccc4)nc32)CC1` (centres unmarked) [Example 261, 7-bromo-4-(1-methylpiperidin-4-yloxy)-2-phenyl-9,10-dihydro-4H-3,10a-diaza-benzo[f]azulene] returned a melting point of 92 °C. This molecule registered a Ki at human H4 receptor [1] of less than 300 nM.

In turn, `CN1CCC(OC2c3ccccc3CCn3c2nc(-c2ccccc2)c3C=O)CC1` (centres unmarked) [Example 262, 4-(1-methylpiperidin-4-yloxy)-2-phenyl-9,10-dihydro-4H-3,10a-diaza-benzo[f]azulene-1-carbaldehyde] came in with a melting point of 70 °C. Also, the inhibition constant Ki at human H4 receptor [1] was less than 300 nM.

In the case of `C=C(C)Cc1nc2n(c1CC(=C)C)CCc1ccccc1C2OC1CCN(C)CC1.O=C(O)C(=O)O.O=C(O)C(=O)O` (centres unmarked) [Example 267, 1,2-bis-(2-methylallyl)-4-(1-methylpiperidin-4-yloxy)-9,10-dihydro-4H-3,10a-diaza-benzo[f]azulene dioxalate], the melting point turned out to be 70 °C. Further, the Ki on human H4 receptor [1] is less than 300 nM.
